Experimental findings from ChEMBL document CHEMBL5230147, “Click, release, and fluoresce: In-vivo generation of CO with concomitant synthesis of a fluorescent reporter” (Bioorg Med Chem, 2021) are described below.

Series [1] in a line: Half life in C57BL/6 mouse at 100 mg/kg, ip at pH 7.4 measured after 24 hrs. Type of series: ADME, organism-based. As to conditions: in vivo.
The nature of series [2]: Half life in rat at 0.1 mg/kg, IG at pH 1.2 measured for 24 hrs. Type of series: ADME, organism-based. Conditions: in vivo, po.
A short description of series [3]: Half life in rat at 0.1 mg/kg, IG at pH 7.4 measured for 24 hrs. Type of series: ADME, organism-based. Conditions: in vivo, po.
Series [4] is described as follows: Half life in mouse at 15 mg/kg, ip at pH 7.4 measured at 24 to 72 hrs. Type of series: ADME, organism-based. Conditions: in vivo, time 24-72 hrs.
The next series relates to Mus musculus. In words: Anti-colitis activity against TNBS-induced C57BL/6 mouse model assessed as survival rate at 15 mg/kg, ip. Type of series: functional.

Structures are written as SMILES.

As to `C#CCN(C)C(=O)C1=C2C(=C(c3ccccc3)C1=O)c1cccc3cccc2c13`, in series [1], the half-life – broadly, the time in which the quantity being followed falls by half – is 1.9 min.
Turning to `C#CC(C)(C)NC(=O)C1=C2C(=C(c3ccccc3)C1=O)c1cccc3cccc2c13`, the half-life in series [2] turned out to be 17.1 min; in series [3] it was 24.1 min.
For `C#CCCN(C(=O)C1=C2C(=C(c3ccccc3)C1=O)c1cccc3cccc2c13)C(C)C`, the half-life in series [4] was 72 min. The Activity in the series with Mus musculus worked out at 75%.
